Source: patent US20240398783A1, “Compounds and Pharmaceutical Compositions Comprising Inhibitors of Amyloid Peptide Interactions with Glycosaminoglycans, Methods of Treatment and Use Thereof” (Gismo Therapeutics, Inc., priority 2021, published 2024)
pIC50: −log10 of the molar value. Structures can show the parent of a compound that is named as a salt.

Target: TDP-43 binding to purified human brain membranes (Homo sapiens, UniProt Q13148)
Test: Inhibition of TDP-43 binding to purified human brain cell membranes (ELISA)
Conditions: TDP43/Membrane Activity (IC-50), TDP-43, purified human brain membranes
Procedure: Purified human brain cell membranes were prepared by differential centrifugation as follows. Five grams of frozen human brain postmortem tissue (obtained from University of Kentucky Alzheimer's Disease Center Tissue Bank) was homogenized in 50 ml HEPES-Buffered sucrose (0.32M sucrose, 4 mM HEPES pH7.4, protease inhibitors) with a motor driven glass-teflon homogenizer. After removing nuclear and cell debris by centrifugation of homogenates at 1,000×g for 10 min at 4 degree Celsius, post-nuclear supernatant was centrifuged at 100,000×g for 30 minutes to yield the crude membrane pellet. Crude membrane pellet was re-suspended in 0.32M sucrose, then centrifuged again at 100,000×g for 30 minutes to yield washed membrane pellet. Membrane pellet was resuspended in sterile PBS (pH7.4), quickly frozen, and kept in aliquots at −80 degrees Celsius. This preparation contains human brain cell membranes. Protein concentration was measured with BCA protein assay kit (Pierce Cat. No. 23227). Purified brain membranes were diluted to 0.01 mg/ml in PBS (pH 7.4) and then added to a 96 well polystyrene ELISA plate (NUNC Cat. No. 449824; 100 μl per well). Plates were incubated Over Night (ON) at 4 degrees Celsius. Following the incubation, the plate was washed consecutively, by immersion, with de-ionized water and PBS (pH 7.4). The ELISA plate was then blocked with nonfat milk (2%, 200 μl per well) for 2 hours at Room Temperature (RT). Following blocking, the plate was washed with de-ionized water then PBS (pH 7.4). GBAPs were dissolved and diluted in PBS (pH 6.5, supplemented with 0.1% BSA) at desired concentrations, added to the ELISA plates coated with brain membranes (100 μl per well) and incubated for 2 hours at RT with gentle shaking. Following incubation, the plate was washed with de-ionized water and three times with PBS (pH 6.5) plus Tween. Bound GBAP was detected by a monoclonal antibody specific for that GBAP, followed by incubation with secondary antibody conjugated to horseradish peroxidase (HRP). Antibody was diluted in PBS (pH6.5 supplemented with 1% BSA). Following each incubation with antibody, the plate was washed with de-ionized water and three times with PBS (pH6.5) wash buffer containing 0.1% Tween. The peroxidase substrate chromogen, TMB (Dako Cat. No. S1599) was added (100 μl per well) to the ELISA plate and incubated at room temperature. After 5 minutes ELISA Stop Solution (hydrochloric acid 1N, sulfuric acid 3N) was added (100 μl per well) to stop the peroxidase catalyzed colorimetric reaction. The Optical Density of the samples was measured at 450 nm using an ELISA plate reader (BioTek Synergy H1). Following color development, the % inhibition compared to control was determined. IC-50s were calculated using GraphPad Prism software.
The assay was performed as described in Example 49, with the following modifications. Following to coating the plates with purified human brain cell membranes, plates were washed as described. The compounds were dissolved in DMSO at 10 mM final concentration and further diluted prior to assay. DMSO concentration in the screening well was up to 2%. Individual compounds were co-incubated with TDP-43 on plates coated with brain membranes. TDP43 from R&D System (Cat. No. AP-190) was quickly frozen and kept in aliquots at −80 degrees Celsius. TDP-43 dissolved in PBS (pH 6.5, supplemented with BSA, 0.1%) was added to the ELISA plate (100 μl per well) and incubated for 2 hours at RT with gentle shaking. Following the incubation, the plate was washed with de-ionized water and three times with PBS (pH 6.5) plus Tween. Bound TDP-43 was detected by Anti-TDP43 Monoclonal Antibody (R&D System Cat. No. MAB7778), followed by secondary anti-IgG antibody conjugated to HRP (R&D System, Cat. No. HAF007). Following to color development with TMB, as described in Example 49, the Optical Density of the samples was measured at 450 nm using an ELISA plate reader. […]

TDP-43 binding to purified human brain membranes, sequence (Q13148 whole entry): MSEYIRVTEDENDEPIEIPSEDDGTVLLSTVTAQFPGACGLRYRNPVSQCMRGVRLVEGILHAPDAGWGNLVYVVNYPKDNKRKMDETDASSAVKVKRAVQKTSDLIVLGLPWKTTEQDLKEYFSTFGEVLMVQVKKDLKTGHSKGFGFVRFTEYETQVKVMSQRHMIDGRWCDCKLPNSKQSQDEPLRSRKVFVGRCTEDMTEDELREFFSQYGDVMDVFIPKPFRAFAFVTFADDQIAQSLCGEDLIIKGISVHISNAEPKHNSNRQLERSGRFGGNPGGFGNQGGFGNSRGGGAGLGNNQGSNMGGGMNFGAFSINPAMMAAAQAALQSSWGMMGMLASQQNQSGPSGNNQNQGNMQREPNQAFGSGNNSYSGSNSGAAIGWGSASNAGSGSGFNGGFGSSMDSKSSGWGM

With `CC(=NNc1ccnc2cc(Cl)ccc12)c1ccc(-n2ccnc2)cc1` [Compound 36, 4-(2-(1-(4-(1H-imidazol-1-yl)phenyl)ethylidene)hydrazineyl)-7-chloroquinoline phosphate] as the compound, how does the pIC50 read?
The pIC50 was 4.31.

How did the pIC50 turn out when `Fc1ccc2c(N/N=C/c3ccc(-n4ccnc4)cc3)ccnc2c1` [Compound 5, (E)-4-(2-(4-(1H-imidazol-1-yl)benzylidene)hydrazinyl)-7-fluoroquinoline] was run?
Its pIC50 is 4.85.

With `C/C(=N\Nc1ncnc2cc(F)ccc12)c1ccc(-n2cc[n+](C)c2)nc1` [Compound 26, (E)-1-(5-(1-(2-(7-fluoroquinazolin-4-yl)hydrazineylidene)ethyl)pyridin-2-yl)-3-methyl-1H-imidazol-3-ium phosphoric acid salt] as the compound, how does the pIC50 read?
Its pIC50 is 4.56.

How did the pIC50 turn out when `C(=N\Nc1ccc2c3c(cccc13)CC2)/c1ccc(-n2ccnc2)cc1` [Compound 8, (E)-1-(4-((2-(1,2-dihydroacenaphthylen-5-yl)hydrazineylidene)methyl)phenyl)-1H-imidazole] was run?
The pIC50 was 4.60.

How did the pIC50 turn out when `Clc1ccc2c(N/N=C/c3ccc(-n4cccn4)cc3)ccnc2c1` [Compound 3, (E)-4-((E)-(4-(1H-pyrazol-1-yl)benzylidene)hydrazono)-7-chloro-1,4-dihydroquinoline] was run?
The pIC50 was 5.18.

How did the pIC50 turn out when `Cc1ncn(-c2ncc(Nc3ncnc4cc(Cl)ccc34)cc2O)c1C` [Compound 40, 5-((7-chloroquinazolin-4-yl)amino)-2-(4,5-dimethyl-1H-imidazol-1-yl)pyridin-3-ol phosphoric acid salt] was run?
The pIC50 was 5.28.

`Clc1ccc2c(Nc3ccc(-n4cncn4)nc3)ccnc2c1` [Compound 44, N-(6-(1H-1,2,4-triazol-1-yl)pyridin-3-yl)-7-chloroquinolin-4-amine] was tested. Which pIC50 did it give?
Its pIC50 is 4.58.

With `Clc1ccc2c(N/N=C/c3ccc(-n4ccnc4)cc3)ccnc2c1` [Compound 38, 4-(2-(4-(1H-imidazol-1-yl)benzylidene)hydrazineyl)-7-chloroquinoline dihydrochloride] as the compound, how does the pIC50 read?
Its pIC50 is 5.21.

With `CC(=NNc1ccnc2cc(Cl)ccc12)c1ccc(-n2cnc(C)c2C)nc1` [Compound 22, 7-chloro-4-(2-(1-(6-(4,5-dimethyl-1H-imidazol-1-yl)pyridin-3-yl)ethylidene)hydrazineyl)quinoline] as the compound, how does the pIC50 read?
Its pIC50 is 4.91.

`Cc1ncn(-c2ccc(Nc3ncnc4cc(Cl)ccc34)cn2)c1C` [Compound 25, 7-chloro-N-(6-(4,5-dimethyl-1H-imidazol-1-yl)pyridin-3-yl)quinazolin-4-amine] was tested. Which pIC50 did it give?
The pIC50 was 4.94.

`Clc1ccc2c(N/N=C/c3ccc(-n4ccnc4)nc3)ccnc2c1` [Compound 14, (E)-4-(2-((6-(1H-imidazol-1-yl)pyridin-3-yl)methylene)hydrazineyl)-7-chloroquinoline hydrochloride] was tested. Which pIC50 did it give?
The pIC50 was 5.40.

`Fc1cc(/C=N/Nc2ccnc3cc(Cl)ccc23)ccc1-n1ccnc1` [Compound 35, (E)-7-chloro-4-(2-(3-fluoro-4-(1H-imidazol-1-yl)benzylidene)hydrazineyl)quinoline hydrochloride] was tested. Which pIC50 did it give?
The pIC50 was 4.88.

With `Clc1ccc2c(Nc3ccc(-n4cncn4)nc3)ncnc2c1` [Compound 34, N-(6-(1H-1,2,4-triazol-1-yl)pyridin-3-yl)-7-chloroquinazolin-4-amine phosphoric acid salt] as the compound, how does the pIC50 read?
The pIC50 was 5.44.

With `C/C(=N\Nc1ncnc2cc(Cl)ccc12)c1ccc(-n2cnc(C)c2C)nc1` [Compound 16, 7-chloro-4-(2-(1-(6-(4,5-dimethyl-1H-imidazol-1-yl)pyridin-3-yl)ethylidene)hydrazineyl)quinazoline phosphate] as the compound, how does the pIC50 read?
The pIC50 was 5.68.

`C/C(=N\Nc1ncnc2cc(Cl)ccc12)c1ccc(-n2cc[n+](C)c2)nc1` [Compound 17, (E)-1-(5-(1-(2-(7-chloroquinazolin-4-yl)hydrazineylidene)ethyl)pyridin-2-yl)-3-methyl-1H-imidazol-3-ium iodide phosphoric acid salt] was tested. Which pIC50 did it give?
The pIC50 was 4.65.

`Cc1ncn(-c2ccc(/C=N\Nc3ncnc4cc(Cl)ccc34)cn2)c1C` [Compound 15, 7-chloro-4-(2-((6-(4,5-dimethyl-1H-imidazol-1-yl)pyridin-3-yl)methylene)hydrazineyl)quinazoline hydrochloride] was tested. Which pIC50 did it give?
Its pIC50 is 5.52.

Same assay, conditions: TDP-43, purified human brain membranes; read-out: TDP43/Membrane Activity (IC-50)

`C/C(=N\Nc1ncnc2cc(Cl)ccc12)c1ccc(-n2cc(C)nc2C)nc1` [Compound 18, (E)-7-chloro-4-(2-(1-(6-(2,4-dimethyl-1H-imidazol-1-yl)pyridin-3-yl)ethylidene)hydrazineyl)quinazoline phosphoric acid salt] was tested. Which pIC50 did it give?
Its pIC50 is 5.03.

How did the pIC50 turn out when `C/C(=N\Nc1ncnc2cc(Cl)ccc12)c1ccc(-n2cc(C)nc2C)nc1` [Compound 27, (E)-7-chloro-4-(2-(1-(6-(2,4-dimethyl-1H-imidazol-1-yl)pyridin-3-yl)ethylidene)hydrazineyl)quinazoline hydrochloride] was run?
Its pIC50 is 5.53.

How did the pIC50 turn out when `Cc1cc(-n2ccnc2)ccc1/C=N/Nc1ccnc2cc(Cl)ccc12` [Compound 1, (E)-4-((E)-(4-(1H-imidazol-1-yl)-2-methylbenzylidene)hydrazono)-7-chloro-1,4-dihydroquinoline] was run?
The pIC50 was 5.47.

How did the pIC50 turn out when `C/C(=N\Nc1ncnc2cc(F)ccc12)c1ccc(-n2cnc(C)c2C)nc1` [Compound 21, (E)-4-(2-(1-(6-(4,5-dimethyl-1H-imidazol-1-yl)pyridin-3-yl)ethylidene)hydrazineyl)-7-fluoroquinazoline] was run?
Its pIC50 is 5.15.

`Clc1ccc2c(Nc3ccc(-n4ccnc4)nc3)ncnc2c1` [Compound 41, N-(6-(1H-imidazol-1-yl)pyridin-3-yl)-7-chloroquinazolin-4-amine] was tested. Which pIC50 did it give?
Its pIC50 is 5.08.

How did the pIC50 turn out when `C/C(=N\Nc1nncc2cc(Cl)ccc12)c1ccc(-n2cc(C)nc2C)nc1` [Compound 24, (E)-6-chloro-1-(2-(1-(6-(2,4-dimethyl-1H-imidazol-1-yl)pyridin-3-yl)ethylidene)hydrazineyl)phthalazine] was run?
Its pIC50 is 5.40.

With `CC(=NNc1ncnc2cc(Cl)ccc12)c1ccnc(-n2cnc(C)c2C)c1` [Compound 28, 7-chloro-4-(2-(1-(2-(4,5-dimethyl-1H-imidazol-1-yl)pyridin-4-yl)ethylidene)hydrazineyl)quinazoline] as the compound, how does the pIC50 read?
The pIC50 was 5.05.
